Experimental data from ChEMBL document CHEMBL1201862, “PubChem BioAssay data set” (2004).
Activity calls are given as the source filed them.

Tested on: not listed separately
Test: HepG2 cell cytotoxicity, dose response, cytotoxicity control for Shn3 inhibitor project, CellTiter-Glo, cherry-picked (AID 624134)
Format: functional, cell-based
Settings: not given
For `CN(Cc1cccc(Cl)c1Cl)C(=O)c1cccc(S(=O)(=O)N2CCN(Cc3ccccc3)CC2)c1`, the AC50 was 55.6 µM (active).
In the case of `COc1ccc(C[C@H]2COC(=O)[C@@H]2Cc2ccc(OC3OC(CO)C(O)C(O)C3O)c(OC)c2)cc1OC` (some centres undefined), the AC50 is reported as 48.3 µM (active).

Tested on: not listed separately
Test: HEp-2 cell cytotoxicity, dose response, cytotoxicity control for RSV inhibitor project, HTS (AID 2410)
Format: functional
Settings: human respiratory syncytial virus
For `Cc1ccc2nc(N=C(N)NS(=O)(=O)c3ccc([N+](=O)[O-])cc3)nc(C)c2c1`, the CC50 was 35.2 µM (active).

Tested on: not listed separately
Test: cytotoxicity toward NIH3T3 fibroblasts, dose response, counter-screen, cell-based, ATP luminescence, mouse fibroblasts (AID 2010);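 further: cells exposed to compound for about 90 hours before reading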
Format: functional
Settings: not given
In the case of `Cc1ccc2nc(N=C(N)NS(=O)(=O)c3ccc([N+](=O)[O-])cc3)nc(C)c2c1`, the EC50 is reported as > 60 µM (not active).

Tested on: H4
Test: Luminescence Cell-Based Dose Response HTS to Identify Activators of 5'UTR Stem-Loop Driven Prion Protein mRNA Translation in H4 Neuroglioblastoma Cells. [Related pubchem assays: 1829 (Project Summary), 1814 (Primary HTS)]
Format: functional
Settings: Homo sapiens
In the case of `CC1(C)CC(=O)C2=CNc3ccccc3N=C2C1`, the EC50 is reported as > 120 µM (not active).
For `Nc1c(-c2ccc(Cl)cc2)nnn1-c1ccccc1`, the EC50 was 13.2 µM (active).
In the case of `CC(=O)c1ccc(NC(=O)CCc2nnc3ccc(NCc4ccco4)nn23)cc1`, the EC50 is reported as > 120 µM (not active).
With `Cc1ccc(NC(=O)c2ccc(S(=O)(=O)NCc3ccco3)cc2)nc1` the EC50 was 49.7 µM (active).
For `COc1cccc(NC(=O)c2nnn(CCc3ccccc3)c2N)c1`, the EC50 was 4.53 µM (active).
For `Cn1c(=O)c2c(nc(SCCN3CCOCC3)n2Cc2ccc(F)cc2)n(C)c1=O`, the EC50 was > 120 µM (not active).
In the case of `O=C1c2sc3nc4ccccc4n3c2C(=O)N1c1ccccc1Cl`, the EC50 is reported as > 120 µM (not active).

Molecular target: T1, Fatty acid synthase (Homo sapiens, UniProt P49327)
T1 sequence (P49327 whole entry, the tested form may be a part): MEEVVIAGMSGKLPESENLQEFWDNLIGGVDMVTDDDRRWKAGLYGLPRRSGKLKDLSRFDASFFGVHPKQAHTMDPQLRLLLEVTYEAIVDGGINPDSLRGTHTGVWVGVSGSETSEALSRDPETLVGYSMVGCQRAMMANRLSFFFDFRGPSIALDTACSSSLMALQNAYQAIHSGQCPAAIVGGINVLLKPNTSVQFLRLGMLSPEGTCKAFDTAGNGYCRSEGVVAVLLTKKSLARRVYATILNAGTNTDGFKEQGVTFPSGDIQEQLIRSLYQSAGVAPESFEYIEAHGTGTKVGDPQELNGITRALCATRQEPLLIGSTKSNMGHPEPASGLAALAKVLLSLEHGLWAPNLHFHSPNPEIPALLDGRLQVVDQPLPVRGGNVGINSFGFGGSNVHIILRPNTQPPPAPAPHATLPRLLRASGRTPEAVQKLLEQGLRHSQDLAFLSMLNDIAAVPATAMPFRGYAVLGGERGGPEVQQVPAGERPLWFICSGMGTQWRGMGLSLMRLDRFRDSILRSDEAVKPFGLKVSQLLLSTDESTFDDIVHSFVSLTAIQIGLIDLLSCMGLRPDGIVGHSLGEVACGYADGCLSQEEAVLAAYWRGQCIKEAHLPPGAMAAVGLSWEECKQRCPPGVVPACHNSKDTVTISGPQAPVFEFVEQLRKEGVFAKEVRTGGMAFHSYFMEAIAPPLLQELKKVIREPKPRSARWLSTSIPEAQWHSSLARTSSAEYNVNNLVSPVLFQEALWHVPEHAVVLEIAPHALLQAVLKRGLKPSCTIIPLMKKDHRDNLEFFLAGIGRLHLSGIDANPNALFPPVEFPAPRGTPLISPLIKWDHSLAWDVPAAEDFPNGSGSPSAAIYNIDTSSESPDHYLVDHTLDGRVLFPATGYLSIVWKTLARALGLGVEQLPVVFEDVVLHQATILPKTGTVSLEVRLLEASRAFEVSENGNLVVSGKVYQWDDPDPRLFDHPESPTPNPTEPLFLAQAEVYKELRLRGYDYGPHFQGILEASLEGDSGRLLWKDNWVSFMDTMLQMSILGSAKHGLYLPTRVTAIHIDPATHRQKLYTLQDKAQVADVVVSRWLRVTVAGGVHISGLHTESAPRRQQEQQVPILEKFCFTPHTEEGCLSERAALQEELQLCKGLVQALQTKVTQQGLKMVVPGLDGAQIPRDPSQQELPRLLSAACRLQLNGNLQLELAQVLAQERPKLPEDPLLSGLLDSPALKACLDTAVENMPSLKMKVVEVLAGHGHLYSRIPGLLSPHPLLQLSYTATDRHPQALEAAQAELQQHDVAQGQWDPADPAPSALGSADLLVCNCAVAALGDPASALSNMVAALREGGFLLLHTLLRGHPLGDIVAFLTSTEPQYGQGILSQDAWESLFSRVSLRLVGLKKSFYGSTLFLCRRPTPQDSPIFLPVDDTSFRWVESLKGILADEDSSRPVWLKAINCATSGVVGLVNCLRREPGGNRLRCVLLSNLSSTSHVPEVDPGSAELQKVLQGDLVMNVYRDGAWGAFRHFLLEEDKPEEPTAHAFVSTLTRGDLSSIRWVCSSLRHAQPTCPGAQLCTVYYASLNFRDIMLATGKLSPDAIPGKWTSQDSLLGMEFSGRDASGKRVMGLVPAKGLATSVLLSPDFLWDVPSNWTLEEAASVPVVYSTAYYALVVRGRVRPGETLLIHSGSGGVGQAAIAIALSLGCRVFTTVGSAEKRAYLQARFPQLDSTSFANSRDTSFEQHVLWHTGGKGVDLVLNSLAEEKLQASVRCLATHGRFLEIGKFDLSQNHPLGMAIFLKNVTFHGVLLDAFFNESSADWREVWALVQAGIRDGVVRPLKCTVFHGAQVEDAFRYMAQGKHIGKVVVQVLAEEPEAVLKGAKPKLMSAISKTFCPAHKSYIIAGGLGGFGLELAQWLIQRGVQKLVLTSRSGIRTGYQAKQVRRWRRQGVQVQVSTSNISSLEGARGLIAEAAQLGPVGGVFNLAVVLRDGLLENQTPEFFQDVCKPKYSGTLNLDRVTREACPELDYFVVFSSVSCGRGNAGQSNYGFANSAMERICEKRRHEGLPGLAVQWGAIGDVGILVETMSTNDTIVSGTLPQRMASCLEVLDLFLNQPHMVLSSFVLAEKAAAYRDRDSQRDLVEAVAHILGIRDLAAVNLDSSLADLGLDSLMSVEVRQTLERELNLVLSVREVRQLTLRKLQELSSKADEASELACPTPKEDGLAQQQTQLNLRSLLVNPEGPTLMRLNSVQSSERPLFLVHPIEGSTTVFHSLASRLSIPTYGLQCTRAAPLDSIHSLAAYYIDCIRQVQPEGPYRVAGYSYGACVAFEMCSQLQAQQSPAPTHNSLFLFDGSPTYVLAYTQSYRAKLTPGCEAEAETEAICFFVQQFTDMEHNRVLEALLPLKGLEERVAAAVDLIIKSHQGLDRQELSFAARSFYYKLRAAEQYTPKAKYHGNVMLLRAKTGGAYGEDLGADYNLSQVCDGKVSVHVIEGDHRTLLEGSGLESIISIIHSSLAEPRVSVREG
Test: FAS thioesterase domain inhibitors, dose response, biochemical, kinetic fluorescence intensity (AID 624326);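 further: rate of fluorescence rise from hydrolysis of a fluorogenic O-methyl fluorescein ester substrate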
Format: functional
Settings: not given
In the case of `O=C(Cn1c(=O)c2sccc2n(Cc2cccc([N+](=O)[O-])c2)c1=O)NCCc1ccccc1`, the IC50 is reported as 26.7 µM (inactive).
For `O=C(CCNC(=O)c1ccc([N+](=O)[O-])cc1)NCc1ccccc1`, the IC50 was 10.4 µM (active).
With `Cc1ccc2nc(N=C(N)NS(=O)(=O)c3ccc([N+](=O)[O-])cc3)nc(C)c2c1` the IC50 was 14.5 µM (active).
With `CCCCN=C(S)Nc1cc([N+](=O)[O-])ccc1C` the IC50 was 14.1 µM (active).
In the case of `COc1ccccc1N1CC(C(=O)Nc2cc(C(F)(F)F)ccc2N2CCCC2)CC1=O` (centres undefined), the IC50 is reported as 7.17 µM (active).
With `O=C(NCC1CCCCC1)c1cc([N+](=O)[O-])ccc1Cl` the IC50 was 9.77 µM (active).

Molecular target: Cytochrome P450 3A4 (Homo sapiens, UniProt P08684);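 further: confirmatory qHTS run detecting inhibitors and substrates of CYP3A4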
Sequence (P08684 whole entry): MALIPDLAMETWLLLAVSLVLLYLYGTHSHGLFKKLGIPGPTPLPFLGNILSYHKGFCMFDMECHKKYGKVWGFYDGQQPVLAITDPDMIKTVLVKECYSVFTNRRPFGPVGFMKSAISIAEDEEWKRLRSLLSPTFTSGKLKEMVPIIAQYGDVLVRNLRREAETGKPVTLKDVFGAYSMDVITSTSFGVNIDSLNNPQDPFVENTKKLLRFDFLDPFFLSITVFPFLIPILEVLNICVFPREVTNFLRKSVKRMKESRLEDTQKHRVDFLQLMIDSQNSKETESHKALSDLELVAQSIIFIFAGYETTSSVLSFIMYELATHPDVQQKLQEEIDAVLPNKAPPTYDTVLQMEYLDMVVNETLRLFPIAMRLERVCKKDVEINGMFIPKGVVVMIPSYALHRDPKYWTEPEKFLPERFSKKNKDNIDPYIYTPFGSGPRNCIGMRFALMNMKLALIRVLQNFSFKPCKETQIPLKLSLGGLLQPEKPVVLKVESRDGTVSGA
Test: not given
Settings: Potency
In the case of `Oc1ccc2c(c1)OC(c1ccc(O)c(O)c1)C(O)C2` (centres undefined), the AC50 is reported as 25.1 µM (inconclusive).
With `COC(=O)[C@]1(C)CC[C@@]2(C)CC[C@@]3(C)C4=CC=C5C(=CC(=O)C(O)=C5C)[C@@]4(C)CC[C@@]3(C)C2C1` (some centres undefined) the AC50 was 31.6 µM (inconclusive).
For `CC(=O)N1[C@H](C)C=C[C@]1(Cc1ccccc1)C(=O)O`, the AC50 was 31.6 µM (inconclusive).
In the case of `CCCCCCC1=Cc2cc(OC)c(OC)cc2C(C2(C(=O)OCC)CCCC2=O)O1` (centres undefined), the AC50 is reported as 3.16 µM (inconclusive).
In the case of `COC(=O)N1CC=CC1(C)C(=O)NCc1ccc(C)o1` (centres undefined), the AC50 is reported as 15.8 µM (inconclusive).

Molecular target: Luciferin 4-monooxygenase (Photinus pyralis, UniProt P08659)
Sequence (P08659 whole entry): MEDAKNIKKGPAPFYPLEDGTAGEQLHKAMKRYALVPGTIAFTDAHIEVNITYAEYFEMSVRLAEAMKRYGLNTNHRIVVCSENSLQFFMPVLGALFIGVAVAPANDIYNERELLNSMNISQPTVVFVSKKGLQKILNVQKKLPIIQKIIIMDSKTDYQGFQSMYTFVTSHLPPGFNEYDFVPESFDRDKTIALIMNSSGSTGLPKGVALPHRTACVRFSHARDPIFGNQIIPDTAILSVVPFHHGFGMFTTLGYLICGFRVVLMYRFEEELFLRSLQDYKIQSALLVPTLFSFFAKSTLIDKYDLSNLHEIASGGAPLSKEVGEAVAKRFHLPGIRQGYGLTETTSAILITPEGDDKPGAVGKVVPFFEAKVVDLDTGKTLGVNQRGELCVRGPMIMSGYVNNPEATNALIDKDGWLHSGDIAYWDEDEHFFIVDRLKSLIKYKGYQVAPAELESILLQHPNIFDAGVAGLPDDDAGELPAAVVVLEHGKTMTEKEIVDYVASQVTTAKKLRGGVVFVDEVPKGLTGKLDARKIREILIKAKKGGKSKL
Test: firefly luciferase enzyme inhibitors, dose response, biochemical, luminescence (AID 1891)
Settings: not given
With `CC(=O)c1ccc(NC(=O)CCc2nnc3ccc(NCc4ccco4)nn23)cc1` the EC50 was > 112 µM (not active).

Tested on: not listed separately
Test: Luminescence Cell-Based Dose Confirmation HTS to Identify Activators of 5'UTR Stem-Loop Driven Alpha-Synuclein mRNA Translation in H4 Neuroglioblastoma Cells. [Related pubchem assays: 1829 (Project Summary), 1814 (Primary HTS)]
Format: functional
Settings: not given
With `CC1(C)CC(=O)C2=CNc3ccccc3N=C2C1` the EC50 was > 120 µM (not active).
With `Nc1c(-c2ccc(Cl)cc2)nnn1-c1ccccc1` the EC50 was 0.217 µM (active).
For `CC(=O)c1ccc(NC(=O)CCc2nnc3ccc(NCc4ccco4)nn23)cc1`, the EC50 was 6.27 µM (active).
In the case of `Cc1ccc(NC(=O)c2ccc(S(=O)(=O)NCc3ccco3)cc2)nc1`, the EC50 is reported as 15.2 µM (active).
With `COc1cccc(NC(=O)c2nnn(CCc3ccccc3)c2N)c1` the EC50 was 6.28 µM (active).
With `Cn1c(=O)c2c(nc(SCCN3CCOCC3)n2Cc2ccc(F)cc2)n(C)c1=O` the EC50 was 0.262 µM (active).
For `O=C1c2sc3nc4ccccc4n3c2C(=O)N1c1ccccc1Cl`, the EC50 was > 120 µM (not active).

Tested on: not listed separately
Test: control 3'UTR Renilla luciferase suppression, dose response, counter-screen for Shn3 inhibitor project, cell-based, Clone20-Shn3RL, cherry-picked (AID 624133)
Format: functional
Settings: not given
With `CN(Cc1cccc(Cl)c1Cl)C(=O)c1cccc(S(=O)(=O)N2CCN(Cc3ccccc3)CC2)c1` the AC50 was 17.7 µM (active).
For `COc1ccc(C[C@H]2COC(=O)[C@@H]2Cc2ccc(OC3OC(CO)C(O)C(O)C3O)c(OC)c2)cc1OC` (some centres undefined), the AC50 was 15.5 µM (active).

Tested on: not listed separately
Test: Luminescence Cell-Based Dose Response HTS to Identify Activators of Luciferase Translation or Activity in H4 […] Cells. [Related pubchem assays: 1829 (Project Summary), 1814 (Primary HTS)]
Format: functional
Settings: not given
With `CC1(C)CC(=O)C2=CNc3ccccc3N=C2C1` the EC50 was > 120 µM (not active).
For `Nc1c(-c2ccc(Cl)cc2)nnn1-c1ccccc1`, the EC50 was 0.135 µM (inconclusive).
For `CC(=O)c1ccc(NC(=O)CCc2nnc3ccc(NCc4ccco4)nn23)cc1`, the EC50 was 11.2 µM (active).
For `Cc1ccc(NC(=O)c2ccc(S(=O)(=O)NCc3ccco3)cc2)nc1`, the EC50 was 11.1 µM (active).
With `COc1cccc(NC(=O)c2nnn(CCc3ccccc3)c2N)c1` the EC50 was 6.24 µM (active).
In the case of `Cn1c(=O)c2c(nc(SCCN3CCOCC3)n2Cc2ccc(F)cc2)n(C)c1=O`, the EC50 is reported as 5.27 µM (active).
For `O=C1c2sc3nc4ccccc4n3c2C(=O)N1c1ccccc1Cl`, the EC50 was 13.8 µM (active).

Tested on: not listed separately
Test: inhibitors of intracellular T. cruzi replication, confirmation, NIH3T3 host cells, beta-gal luminescence (AID 2044);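 further: intracellular parasites grown in NIH/3T3 mouse fibroblasts as host cells; luminescent beta-galactosidase reporter signal from transgenic T. cruzi replicating inside host cells; inhibitors lower the luminescence signal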
Format: functional, cell-based
Settings: not given
For `Cc1ccc2nc(N=C(N)NS(=O)(=O)c3ccc([N+](=O)[O-])cc3)nc(C)c2c1`, the EC50 was 0.199 µM (active).

Molecular target: T1, Fatty acid synthase
Test: FAS thioesterase domain inhibitors, dose response, biochemical, endpoint fluorescence intensity, uHTS hits (AID 624327);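 further: fluorescence from hydrolysis of an O-methyl fluorescein acyl ester substrate by the enzyme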
Format: functional
Settings: not given
With `O=C(Cn1c(=O)c2sccc2n(Cc2cccc([N+](=O)[O-])c2)c1=O)NCCc1ccccc1` the IC50 was 11.1 µM (active).
In the case of `O=C(CCNC(=O)c1ccc([N+](=O)[O-])cc1)NCc1ccccc1`, the IC50 is reported as 11.3 µM (active).
For `Cc1ccc2nc(N=C(N)NS(=O)(=O)c3ccc([N+](=O)[O-])cc3)nc(C)c2c1`, the IC50 was 12.2 µM (active).
For `CCCCN=C(S)Nc1cc([N+](=O)[O-])ccc1C`, the IC50 was 9.4 µM (active).
For `COc1ccccc1N1CC(C(=O)Nc2cc(C(F)(F)F)ccc2N2CCCC2)CC1=O` (centres undefined), the IC50 was 6.81 µM (active).
For `O=C(NCC1CCCCC1)c1cc([N+](=O)[O-])ccc1Cl`, the IC50 was 13.8 µM (active).

Tested on: not listed separately
Test: Luminescence Cell-Based Dose Confirmation HTS to Identify Inhibitors of Platelet Dense Granule Release. [Related pubchem assays: 1663 (Primary HTS), 1678 (Summary of Project)]
Format: functional
Settings: not given
With `CC(=O)c1ccc(NC(=O)CCc2nnc3ccc(NCc4ccco4)nn23)cc1` the EC50 was > 112 µM (not active).

Tested on: not listed separately
Test: Shn3 3'UTR reporter inhibitors, dose response, cell-based, Clone20 osteoblasts, firefly luciferase, cherry-picked (AID 624132);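 further: firefly luciferase luminescence from reporter carrying the Shn3 3'UTR in osteoblasts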
Format: functional
Settings: not given
In the case of `CN(Cc1cccc(Cl)c1Cl)C(=O)c1cccc(S(=O)(=O)N2CCN(Cc3ccccc3)CC2)c1`, the AC50 is reported as 3.38 µM (active).
With `COc1ccc(C[C@H]2COC(=O)[C@@H]2Cc2ccc(OC3OC(CO)C(O)C(O)C3O)c(OC)c2)cc1OC` (some centres undefined) the AC50 was 4.43 µM (active).
